Data from patent US10266537B2, “3-acetylenyl-pyrazole-pyrimidine derivative, and preparation method therefor and uses thereof” (Si Chuan University, priority 2015, dated 2019).
Blank lines part the entries; values can stand above or below the molecule they belong to.

How the values were obtained:
[1] = system: Hela; assay: Cell proliferation inhibition assay (MTT); format: cell-based; settings: Homo sapiens, 72 hours, read-out: Proliferation inhibitory activity IC50
[2] = target: FGFR2 (Homo sapiens (Human), UniProt P21802); assay: Kinase inhibition assay (KinaseProfiler, 33P-ATP); format: biochemical
FGFR2, sequence (P21802 22-821): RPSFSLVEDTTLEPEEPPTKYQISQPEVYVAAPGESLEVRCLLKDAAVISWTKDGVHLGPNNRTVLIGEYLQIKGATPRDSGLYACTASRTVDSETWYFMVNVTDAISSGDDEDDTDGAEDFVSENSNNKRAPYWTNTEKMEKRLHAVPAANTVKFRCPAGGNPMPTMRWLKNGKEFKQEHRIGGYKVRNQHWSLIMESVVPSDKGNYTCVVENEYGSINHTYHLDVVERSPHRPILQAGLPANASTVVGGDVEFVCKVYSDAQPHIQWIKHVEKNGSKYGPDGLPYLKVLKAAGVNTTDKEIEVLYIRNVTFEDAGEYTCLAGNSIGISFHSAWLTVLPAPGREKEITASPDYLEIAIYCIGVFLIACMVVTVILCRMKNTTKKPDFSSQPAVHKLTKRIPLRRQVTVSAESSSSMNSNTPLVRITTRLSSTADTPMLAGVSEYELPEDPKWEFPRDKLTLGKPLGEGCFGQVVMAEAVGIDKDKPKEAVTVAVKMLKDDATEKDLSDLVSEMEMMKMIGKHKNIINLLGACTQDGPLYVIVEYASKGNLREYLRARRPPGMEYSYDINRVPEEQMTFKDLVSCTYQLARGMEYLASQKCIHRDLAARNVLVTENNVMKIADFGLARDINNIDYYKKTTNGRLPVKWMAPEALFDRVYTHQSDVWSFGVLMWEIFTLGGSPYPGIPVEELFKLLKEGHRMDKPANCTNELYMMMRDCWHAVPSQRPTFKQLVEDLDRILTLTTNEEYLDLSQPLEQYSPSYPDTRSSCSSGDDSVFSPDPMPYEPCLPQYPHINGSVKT

[3] = system: PC-9; assay: Cell proliferation inhibition assay (MTT); format: cell-based; settings: Homo sapiens, 72 hours, read-out: Proliferation inhibitory activity IC50
[4] = target: PI3 Kinase (p120g)(h) (Homo sapiens (Human), UniProt P48736); assay: Kinase inhibition assay (KinaseProfiler, 33P-ATP); format: biochemical; settings: read-out: The percentage of the remaining active protein
[5] = target: PI3 Kinase (p110a/p65a)(h) (Homo sapiens (Human), UniProt P42336); assay: Kinase inhibition assay (KinaseProfiler, 33P-ATP); format: biochemical; settings: read-out: The percentage of the remaining active protein
[6] = target: DCAMKL3(h) (Homo sapiens (Human), UniProt Q9C098); assay: Kinase inhibition assay (KinaseProfiler, 33P-ATP); format: biochemical; settings: read-out: The percentage of the remaining active protein
[7] = target: SRPK1(h) (Homo sapiens (Human), UniProt Q96SB4); assay: Kinase inhibition assay (KinaseProfiler, 33P-ATP); format: biochemical; settings: read-out: The percentage of the remaining active protein
[8] = target: EphA3 (Homo sapiens (Human), UniProt P29320); assay: Kinase inhibition assay (KinaseProfiler, 33P-ATP); format: biochemical; settings: EphA3(h), read-out: The percentage of the remaining active protein
[9] = target: Aurora-C(h) (Homo sapiens (Human), UniProt Q9UQB9); assay: Kinase inhibition assay (KinaseProfiler, 33P-ATP); format: biochemical; settings: read-out: The percentage of the remaining active protein
[10] = target: PKCθ(h) (Homo sapiens (Human), UniProt Q04759); assay: Kinase inhibition assay (KinaseProfiler, 33P-ATP); format: biochemical; settings: read-out: The percentage of the remaining active protein
PKCθ(h), sequence (Q04759 whole entry): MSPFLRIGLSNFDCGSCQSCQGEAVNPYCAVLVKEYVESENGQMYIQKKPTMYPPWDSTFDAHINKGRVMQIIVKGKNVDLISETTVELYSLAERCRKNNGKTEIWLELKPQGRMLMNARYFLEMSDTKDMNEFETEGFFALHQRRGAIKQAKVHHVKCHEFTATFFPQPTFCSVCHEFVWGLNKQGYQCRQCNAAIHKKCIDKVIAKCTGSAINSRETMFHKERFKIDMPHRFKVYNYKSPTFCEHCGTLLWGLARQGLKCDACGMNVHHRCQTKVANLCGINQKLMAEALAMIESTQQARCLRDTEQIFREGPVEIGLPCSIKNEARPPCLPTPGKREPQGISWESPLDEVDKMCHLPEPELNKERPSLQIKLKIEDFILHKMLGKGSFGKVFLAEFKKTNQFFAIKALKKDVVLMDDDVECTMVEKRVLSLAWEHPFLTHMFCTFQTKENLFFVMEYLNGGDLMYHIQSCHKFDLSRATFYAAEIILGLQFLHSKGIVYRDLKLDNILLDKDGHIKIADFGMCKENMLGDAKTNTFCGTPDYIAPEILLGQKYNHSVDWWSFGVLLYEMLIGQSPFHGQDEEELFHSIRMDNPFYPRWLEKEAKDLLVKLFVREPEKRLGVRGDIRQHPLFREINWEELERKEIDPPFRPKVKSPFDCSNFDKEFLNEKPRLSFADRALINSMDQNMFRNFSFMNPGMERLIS

[11] = target: Txk (Homo sapiens (Human), UniProt P42681); assay: Kinase inhibition assay (KinaseProfiler, 33P-ATP); format: biochemical; settings: Txk(h), read-out: The percentage of the remaining active protein
[12] = target: MKK7β(h) (Homo sapiens (Human), UniProt O14733); assay: Kinase inhibition assay (KinaseProfiler, 33P-ATP); format: biochemical; settings: read-out: The percentage of the remaining active protein
[13] = target: ROCK-II(h) (Homo sapiens (Human), UniProt O75116); assay: Kinase inhibition assay (KinaseProfiler, 33P-ATP); format: biochemical; settings: read-out: The percentage of the remaining active protein
[14] = target: EphA4 (Homo sapiens (Human), UniProt P54764); assay: Kinase inhibition assay (KinaseProfiler, 33P-ATP); format: biochemical; settings: EphA4(h), read-out: The percentage of the remaining active protein
[15] = target: VRK2(h) (Homo sapiens (Human), UniProt Q86Y07); assay: Kinase inhibition assay (KinaseProfiler, 33P-ATP); format: biochemical; settings: read-out: The percentage of the remaining active protein
VRK2(h), sequence (Q86Y07 whole entry): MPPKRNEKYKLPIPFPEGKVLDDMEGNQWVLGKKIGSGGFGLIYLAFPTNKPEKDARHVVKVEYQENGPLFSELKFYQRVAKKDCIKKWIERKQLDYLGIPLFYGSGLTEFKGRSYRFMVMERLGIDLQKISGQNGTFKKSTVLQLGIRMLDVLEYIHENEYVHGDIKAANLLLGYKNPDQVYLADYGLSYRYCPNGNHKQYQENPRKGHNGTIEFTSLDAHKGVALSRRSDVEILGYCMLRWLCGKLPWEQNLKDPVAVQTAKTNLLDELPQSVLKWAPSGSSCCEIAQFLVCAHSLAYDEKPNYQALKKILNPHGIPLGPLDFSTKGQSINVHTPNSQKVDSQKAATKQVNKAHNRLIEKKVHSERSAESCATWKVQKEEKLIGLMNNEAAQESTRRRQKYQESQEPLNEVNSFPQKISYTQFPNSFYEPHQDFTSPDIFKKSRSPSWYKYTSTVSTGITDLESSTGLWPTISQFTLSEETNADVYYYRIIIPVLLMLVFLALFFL

[16] = target: PI3KC2g(h) (Homo sapiens (Human), UniProt O75747); assay: Kinase inhibition assay (KinaseProfiler, 33P-ATP); format: biochemical; settings: read-out: The percentage of the remaining active protein
[17] = target: SGK3(h) (Homo sapiens (Human), UniProt Q96BR1); assay: Kinase inhibition assay (KinaseProfiler, 33P-ATP); format: biochemical; settings: read-out: The percentage of the remaining active protein
SGK3(h), sequence (Q96BR1 whole entry): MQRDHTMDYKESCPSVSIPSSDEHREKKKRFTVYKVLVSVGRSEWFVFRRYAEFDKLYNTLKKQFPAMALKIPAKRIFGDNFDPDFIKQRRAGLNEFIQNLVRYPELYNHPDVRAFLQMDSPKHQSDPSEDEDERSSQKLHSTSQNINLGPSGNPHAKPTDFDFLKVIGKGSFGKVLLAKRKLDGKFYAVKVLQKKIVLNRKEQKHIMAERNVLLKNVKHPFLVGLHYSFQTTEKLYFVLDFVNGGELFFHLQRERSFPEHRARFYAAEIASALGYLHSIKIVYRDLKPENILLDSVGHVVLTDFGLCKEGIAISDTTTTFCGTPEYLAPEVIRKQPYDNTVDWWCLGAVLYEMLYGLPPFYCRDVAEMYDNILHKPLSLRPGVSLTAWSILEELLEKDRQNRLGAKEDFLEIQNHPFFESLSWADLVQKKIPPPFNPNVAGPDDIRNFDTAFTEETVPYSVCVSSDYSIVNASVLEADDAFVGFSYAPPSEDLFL

[18] = target: NEK11(h) (Homo sapiens (Human), UniProt Q8NG66); assay: Kinase inhibition assay (KinaseProfiler, 33P-ATP); format: biochemical; settings: read-out: The percentage of the remaining active protein
[19] = target: DAPK1(h) (Homo sapiens (Human), UniProt P53355); assay: Kinase inhibition assay (KinaseProfiler, 33P-ATP); format: biochemical; settings: read-out: The percentage of the remaining active protein
[20] = target: TSSK2(h) (Homo sapiens (Human), UniProt Q96PF2); assay: Kinase inhibition assay (KinaseProfiler, 33P-ATP); format: biochemical; settings: read-out: The percentage of the remaining active protein
[21] = target: CK2α2(h) (Homo sapiens (Human), UniProt P19784); assay: Kinase inhibition assay (KinaseProfiler, 33P-ATP); format: biochemical; settings: read-out: The percentage of the remaining active protein
[22] = target: LOK(h) (Homo sapiens (Human), UniProt O94804); assay: Kinase inhibition assay (KinaseProfiler, 33P-ATP); format: biochemical; settings: read-out: The percentage of the remaining active protein
[23] = target: cSRC(h) (Homo sapiens (Human), UniProt P12931); assay: Kinase inhibition assay (KinaseProfiler, 33P-ATP); format: biochemical; settings: 10 μM, read-out: The percentage of the remaining active protein
[24] = target: CLK3(h) (Homo sapiens (Human), UniProt P49761); assay: Kinase inhibition assay (KinaseProfiler, 33P-ATP); format: biochemical; settings: read-out: The percentage of the remaining active protein
CLK3(h), sequence (P49761 whole entry): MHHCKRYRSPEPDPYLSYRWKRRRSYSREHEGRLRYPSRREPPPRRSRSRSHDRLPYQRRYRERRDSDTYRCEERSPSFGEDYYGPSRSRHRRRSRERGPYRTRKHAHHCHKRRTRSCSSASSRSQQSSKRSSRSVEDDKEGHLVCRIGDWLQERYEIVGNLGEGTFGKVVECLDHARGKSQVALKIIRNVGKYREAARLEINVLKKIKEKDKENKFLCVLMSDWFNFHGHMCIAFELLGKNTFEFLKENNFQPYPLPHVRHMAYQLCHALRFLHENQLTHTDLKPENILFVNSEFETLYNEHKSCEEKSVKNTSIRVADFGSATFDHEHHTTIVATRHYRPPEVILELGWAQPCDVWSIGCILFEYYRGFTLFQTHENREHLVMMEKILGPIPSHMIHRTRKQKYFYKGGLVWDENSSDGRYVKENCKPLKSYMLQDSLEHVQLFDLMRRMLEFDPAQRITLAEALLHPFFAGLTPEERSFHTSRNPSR

[25] = target: PASK(h) (Homo sapiens (Human), UniProt Q96RG2); assay: Kinase inhibition assay (KinaseProfiler, 33P-ATP); format: biochemical; settings: read-out: The percentage of the remaining active protein
[26] = target: Plk1(h) (Homo sapiens (Human), UniProt P53350); assay: Kinase inhibition assay (KinaseProfiler, 33P-ATP); format: biochemical; settings: read-out: The percentage of the remaining active protein
[27] = target: Lck (Homo sapiens (Human), UniProt P06239); assay: Kinase inhibition assay (KinaseProfiler, 33P-ATP); format: biochemical
Lck, sequence (P06239 whole entry): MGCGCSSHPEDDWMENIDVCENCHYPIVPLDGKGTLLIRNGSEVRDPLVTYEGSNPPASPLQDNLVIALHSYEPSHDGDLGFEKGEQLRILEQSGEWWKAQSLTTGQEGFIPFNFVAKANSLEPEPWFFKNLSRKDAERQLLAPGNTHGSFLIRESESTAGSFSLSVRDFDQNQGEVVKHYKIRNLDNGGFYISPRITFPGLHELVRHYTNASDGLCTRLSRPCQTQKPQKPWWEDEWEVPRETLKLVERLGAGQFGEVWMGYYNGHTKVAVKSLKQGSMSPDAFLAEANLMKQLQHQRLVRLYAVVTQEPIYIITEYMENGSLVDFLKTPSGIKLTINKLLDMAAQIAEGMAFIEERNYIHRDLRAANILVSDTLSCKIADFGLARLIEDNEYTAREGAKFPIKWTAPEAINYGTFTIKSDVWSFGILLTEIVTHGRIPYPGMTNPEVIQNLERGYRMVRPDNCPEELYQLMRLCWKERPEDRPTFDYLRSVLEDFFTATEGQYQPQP

[28] = target: DYRK1A(h) (Homo sapiens (Human), UniProt Q13627); assay: Kinase inhibition assay (KinaseProfiler, 33P-ATP); format: biochemical; settings: read-out: The percentage of the remaining active protein
[29] = target: PrKX(h) (Homo sapiens (Human), UniProt P51817); assay: Kinase inhibition assay (KinaseProfiler, 33P-ATP); format: biochemical; settings: read-out: The percentage of the remaining active protein
PrKX(h), sequence (P51817 whole entry): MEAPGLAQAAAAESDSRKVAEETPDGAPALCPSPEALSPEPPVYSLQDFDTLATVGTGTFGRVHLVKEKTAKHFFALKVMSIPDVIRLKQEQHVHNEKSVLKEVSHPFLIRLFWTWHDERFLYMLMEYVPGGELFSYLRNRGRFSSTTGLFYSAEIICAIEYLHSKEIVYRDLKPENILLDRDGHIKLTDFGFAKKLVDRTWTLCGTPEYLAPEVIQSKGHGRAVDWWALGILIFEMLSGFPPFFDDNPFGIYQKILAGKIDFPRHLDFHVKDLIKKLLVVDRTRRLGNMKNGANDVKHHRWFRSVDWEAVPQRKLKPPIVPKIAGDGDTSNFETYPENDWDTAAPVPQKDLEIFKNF

[30] = target: Wee1(h) (Homo sapiens (Human), UniProt P30291); assay: Kinase inhibition assay (KinaseProfiler, 33P-ATP); format: biochemical; settings: read-out: The percentage of the remaining active protein
Wee1(h), sequence (P30291 whole entry): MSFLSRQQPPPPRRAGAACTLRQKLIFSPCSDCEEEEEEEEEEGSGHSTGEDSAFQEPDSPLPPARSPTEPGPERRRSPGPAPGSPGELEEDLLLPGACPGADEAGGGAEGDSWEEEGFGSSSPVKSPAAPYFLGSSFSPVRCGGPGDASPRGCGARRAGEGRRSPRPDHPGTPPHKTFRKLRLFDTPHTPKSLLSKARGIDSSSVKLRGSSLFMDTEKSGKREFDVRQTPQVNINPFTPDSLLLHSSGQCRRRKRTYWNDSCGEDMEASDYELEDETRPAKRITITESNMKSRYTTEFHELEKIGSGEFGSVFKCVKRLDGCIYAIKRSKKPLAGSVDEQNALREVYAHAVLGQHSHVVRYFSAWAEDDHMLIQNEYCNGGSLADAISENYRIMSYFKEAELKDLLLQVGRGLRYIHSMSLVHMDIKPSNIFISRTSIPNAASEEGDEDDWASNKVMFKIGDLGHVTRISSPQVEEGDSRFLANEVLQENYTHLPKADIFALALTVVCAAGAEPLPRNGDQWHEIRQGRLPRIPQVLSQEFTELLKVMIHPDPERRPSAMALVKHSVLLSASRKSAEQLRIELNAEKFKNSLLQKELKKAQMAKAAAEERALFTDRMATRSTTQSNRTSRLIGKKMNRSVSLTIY

[31] = target: EGFR(T790M, L858R) (Homo sapiens (Human), UniProt P00533, L858R/T790M); assay: Kinase inhibition assay (KinaseProfiler, 33P-ATP); format: biochemical; settings: EGFR(T790M, L858R)(h), read-out: The percentage of the remaining active protein
[32] = target: PAK6(h) (Homo sapiens (Human), UniProt Q9NQU5); assay: Kinase inhibition assay (KinaseProfiler, 33P-ATP); format: biochemical; settings: read-out: The percentage of the remaining active protein
[33] = target: CaMKIV(h) (Homo sapiens (Human), UniProt Q16566); assay: Kinase inhibition assay (KinaseProfiler, 33P-ATP); format: biochemical; settings: read-out: The percentage of the remaining active protein
CaMKIV(h), sequence (Q16566 whole entry): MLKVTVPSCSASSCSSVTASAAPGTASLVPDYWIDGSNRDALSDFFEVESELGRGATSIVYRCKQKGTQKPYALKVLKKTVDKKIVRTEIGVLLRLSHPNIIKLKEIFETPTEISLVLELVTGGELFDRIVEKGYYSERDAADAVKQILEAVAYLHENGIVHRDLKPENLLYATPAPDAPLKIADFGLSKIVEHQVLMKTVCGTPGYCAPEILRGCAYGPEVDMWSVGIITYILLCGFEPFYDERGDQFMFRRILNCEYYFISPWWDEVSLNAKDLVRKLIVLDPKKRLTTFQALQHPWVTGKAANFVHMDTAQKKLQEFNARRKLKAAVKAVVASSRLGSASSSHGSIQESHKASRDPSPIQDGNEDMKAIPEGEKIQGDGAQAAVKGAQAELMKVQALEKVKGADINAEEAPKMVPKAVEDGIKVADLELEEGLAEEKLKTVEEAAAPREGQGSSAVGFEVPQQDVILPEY

[34] = target: EGFR(L861Q)(h) (Homo sapiens (Human), UniProt P00533, L861Q); assay: Kinase inhibition assay (KinaseProfiler, 33P-ATP); format: biochemical; settings: read-out: The percentage of the remaining active protein
[35] = target: JAK1 (Homo sapiens (Human), UniProt P23458); assay: Kinase inhibition assay (KinaseProfiler, 33P-ATP); format: biochemical; settings: JAK1(h), read-out: The percentage of the remaining active protein

IC50 [1]: 7230 nM
Structure (SMILES): Cc1ccc(NC(=O)c2cccc(C(F)(F)F)c2)cc1C#Cc1nn(C2CCN(C)CC2)c2ncnc(N)c12 [Compound 31]

remaining activity at 10 µM ([2]; FGFR2(h), 10 μM, read-out: The percentage of the remaining active protein): 0%
IC50 ([2]; FGFR2, ATP at Km): 40 nM
IC50 [3]: 100 to 300 nM
remaining activity at 10 µM [4]: 87%
remaining activity at 10 µM [5]: 92%
remaining activity at 10 µM [6]: 101%
remaining activity at 10 µM [7]: 106%
remaining activity at 10 µM [8]: 3%
remaining activity at 10 µM [9]: 101%
remaining activity at 10 µM [10]: 103%
remaining activity at 10 µM [11]: 1%
remaining activity at 10 µM [12]: 70%
remaining activity at 10 µM [13]: 56%
remaining activity at 10 µM [14]: -2%
remaining activity at 10 µM [15]: 85%
remaining activity at 10 µM [16]: 98%
remaining activity at 10 µM [17]: 98%
remaining activity at 10 µM [18]: 50%
remaining activity at 10 µM [19]: 97%
remaining activity at 10 µM [20]: 96%
remaining activity at 10 µM [21]: 92%
remaining activity at 10 µM [22]: 16%
remaining activity at 10 µM [23]: 0%
remaining activity at 10 µM [24]: 83%
remaining activity at 10 µM [25]: 113%
remaining activity at 10 µM [26]: 92%
remaining activity at 10 µM ([27]; Lck(h), 10 μM, read-out: The percentage of the remaining active protein): 0%
IC50 ([27]; Lck, ATP at Km): 14 nM
remaining activity at 10 µM [28]: 95%
remaining activity at 10 µM [29]: 105%
remaining activity at 10 µM [30]: 95%
remaining activity at 10 µM [31]: 0%
remaining activity at 10 µM [32]: 92%
remaining activity at 10 µM [33]: 93%
remaining activity at 10 µM [34]: 0%
remaining activity at 10 µM [35]: 3%
Structure (SMILES): Cc1ccc(NC(=O)c2ccc(C)c(C(F)(F)F)c2)cc1C#Cc1nn([C@H]2CC[C@H](O)CC2)c2ncnc(N)c12 [Compound 93]
